Columns and labels:
Format in all cases: functional
[1] = Growth inhibition of human MDA-MB-175-VII cells incubated for 72 hrs by Cell-titer-Glo reagent based assay
[2] = Growth inhibition of human EFM19 cells incubated for 72 hrs by Cell-titer-Glo reagent based assay; conditions: EFM-19, 72 h
[3] = Growth inhibition of human RKO cells incubated for 72 hrs by Cell-titer-Glo reagent based assay
[4] = Growth inhibition of human DLD1 cells incubated for 72 hrs by Cell-titer-Glo reagent based assay; conditions: DLD-1, 72 h
[5] = Growth inhibition of human T84 cells incubated for 72 hrs by Cell-titer-Glo reagent based assay; conditions: T84, 72 h
[6] = Growth inhibition of human KM12 cells incubated for 72 hrs by Cell-titer-Glo reagent based assay; conditions: KM12, 72 h
[7] = Growth inhibition of human SW837 cells incubated for 72 hrs by Cell-titer-Glo reagent based assay; conditions: SW837, 72 h
[8] = Growth inhibition of human LS1034 cells incubated for 72 hrs by Cell-titer-Glo reagent based assay; conditions: LS-1034, 72 h
[9] = Growth inhibition of human COLO205 cells incubated for 72 hrs by Cell-titer-Glo reagent based assay; conditions: COLO 205, 72 h
[10] = Growth inhibition of human SW1463 cells incubated for 72 hrs by Cell-titer-Glo reagent based assay; conditions: SW1463, 72 h
[11] = Growth inhibition of human HT-29 cells incubated for 72 hrs by Cell-titer-Glo reagent based assay; conditions: HT-29, 72 h
[12] = Growth inhibition of human SW480 cells incubated for 72 hrs by Cell-titer-Glo reagent based assay; conditions: SW480, 72 h
[13] = Growth inhibition of human SW1417 cells incubated for 72 hrs by Cell-titer-Glo reagent based assay; conditions: SW1417, 72 h
[14] = Growth inhibition of human A549 cells incubated for 72 hrs by Cell-titer-Glo reagent based assay; conditions: A549, 72 h
[15] = Growth inhibition of human NCI-H1355 cells incubated for 72 hrs by Cell-titer-Glo reagent based assay; conditions: NCI-H1355, 72 h
[16] = Growth inhibition of human NCI-H1792 cells incubated for 72 hrs by Cell-titer-Glo reagent based assay; conditions: NCI-H1792, 72 h
[17] = Growth inhibition of human NCI-H23 cells incubated for 72 hrs by Cell-titer-Glo reagent based assay; conditions: NCI-H23, 72 h
[18] = Growth inhibition of human MV522 cells incubated for 72 hrs by Cell-titer-Glo reagent based assay; conditions: MV522, 72 h
[19] = Growth inhibition of human NCI-H1155 cells incubated for 72 hrs by Cell-titer-Glo reagent based assay; conditions: NCI-H1155, 72 h
[20] = Growth inhibition of human SW1573 cells incubated for 72 hrs by Cell-titer-Glo reagent based assay; conditions: SW1573, 72 h
[21] = Growth inhibition of human HOP62 cells incubated for 72 hrs by Cell-titer-Glo reagent based assay; conditions: HOP-62, 72 h
[22] = Growth inhibition of human SW900 cells incubated for 72 hrs by Cell-titer-Glo reagent based assay; conditions: SW900, 72 h
[23] = Growth inhibition of human A427 cells incubated for 72 hrs by Cell-titer-Glo reagent based assay; conditions: A-427, 72 h
[24] = Growth inhibition of human HCC827 cells incubated for 72 hrs by Cell-titer-Glo reagent based assay; conditions: HCC827, 72 h
[25] = Growth inhibition of human Calu3 cells incubated for 72 hrs by Cell-titer-Glo reagent based assay; conditions: Calu-3, 72 h
[26] = Growth inhibition of human NCI-H727 cells incubated for 72 hrs by Cell-titer-Glo reagent based assay; conditions: NCI-H727, 72 h
[27] = Growth inhibition of human RKO cells at 1:10 molar ratio of compound in presence of N-{3-[3-cyclopropyl-5-(2-fluoro-4-iodo-phenylamino)-6,8-dimethyl- 2,4,7-trioxo-3,4,6,7-tetrahydro-2H-pyrido[4,3-d]pyrimidin-1-yl]phenyl}acetamide incubated for 72 hrs by Cell-titer-Glo reagent based assay
[28] = Growth inhibition of human COLO205 cells at 1:10 molar ratio of compound in presence of N-{3-[3-cyclopropyl-5-(2-fluoro-4-iodo-phenylamino)-6,8-dimethyl- 2,4,7-trioxo-3,4,6,7-tetrahydro-2H-pyrido[4,3-d]pyrimidin-1-yl]phenyl}acetamide incubated for 72 hrs by Cell-titer-Glo reagent based assay; conditions: COLO 205, 72 h
[29] = Growth inhibition of human NCI-H727 cells at 1:10 molar ratio of compound in presence of N-{3-[3-cyclopropyl-5-(2-fluoro-4-iodo-phenylamino)-6,8-dimethyl- 2,4,7-trioxo-3,4,6,7-tetrahydro-2H-pyrido[4,3-d]pyrimidin-1-yl]phenyl}acetamide incubated for 72 hrs by Cell-titer-Glo reagent based assay; conditions: NCI-H727, 72 h
[30] = Growth inhibition of human EFM19 cells at 1:10 molar ratio of compound in presence of N-{(1S)-2-amino-1-[(3-fluorophenyl)methyl]ethyl}-5-chloro-4-(4-chloro-1-methyl-1H-pyrazol-5-yl)-2-thiophenecar- boxamide incubated for 72 hrs by Cell-titer-Glo reagent based assay; conditions: EFM-19, 72 h
[31] = Growth inhibition of human T84 cells at 1:10 molar ratio of compound in presence of N-{(1S)-2-amino-1-[(3-fluorophenyl)methyl]ethyl}-5-chloro-4-(4-chloro-1-methyl-1H-pyrazol-5-yl)-2-thiophenecar- boxamide incubated for 72 hrs by Cell-titer-Glo reagent based assay; conditions: T84, 72 h
[32] = Growth inhibition of human COLO205 cells at 1:10 molar ratio of compound in presence of N-{(1S)-2-amino-1-[(3-fluorophenyl)methyl]ethyl}-5-chloro-4-(4-chloro-1-methyl-1H-pyrazol-5-yl)-2-thiophenecar- boxamide incubated for 72 hrs by Cell-titer-Glo reagent based assay; conditions: COLO 205, 72 h
[33] = Growth inhibition of human MV522 cells at 1:10 molar ratio of compound in presence of N-{(1S)-2-amino-1-[(3-fluorophenyl)methyl]ethyl}-5-chloro-4-(4-chloro-1-methyl-1H-pyrazol-5-yl)-2-thiophenecar- boxamide incubated for 72 hrs by Cell-titer-Glo reagent based assay; conditions: MV522, 72 h
[34] = Growth inhibition of human NCI-H1155 cells at 1:10 molar ratio of compound in presence of N-{(1S)-2-amino-1-[(3-fluorophenyl)methyl]ethyl}-5-chloro-4-(4-chloro-1-methyl-1H-pyrazol-5-yl)-2-thiophenecar- boxamide incubated for 72 hrs by Cell-titer-Glo reagent based assay; conditions: NCI-H1155, 72 h
[35] = Growth inhibition of human HT-29 cells assessed combination index at 1:10 molar ratio of compound in presence of N-{(1S)-2-amino-1-[(3-fluorophenyl)methyl]ethyl}-5-chloro-4-(4-chloro-1-methyl-1H-pyrazol-5-yl)-2-thiophenecar- boxamide incubated for 72 hrs by Cell-titer-Glo reagent based assay
[36] = Growth inhibition of human NCI-H727 cells assessed combination index at 1:10 molar ratio of compound in presence of N-{(1S)-2-amino-1-[(3-fluorophenyl)methyl]ethyl}-5-chloro-4-(4-chloro-1-methyl-1H-pyrazol-5-yl)-2-thiophenecar- boxamide incubated for 72 hrs by Cell-titer-Glo reagent based assay

SMILES	IC50 [1]	IC50 [2]	IC50 [3]	IC50 [4]	IC50 [5]	IC50 [6]	IC50 [7]	IC50 [8]	IC50 [9]	IC50 [10]	IC50 [11]	IC50 [12]	IC50 [13]	IC50 [14]	IC50 [15]	IC50 [16]	IC50 [17]	IC50 [18]	IC50 [19]	IC50 [20]	other results
Cn1ncc(Cl)c1-c1cc(C(=O)N[C@H](CN)Cc2cccc(F)c2)sc1Cl [AFURESERTIB]	794 nM	430 nM	1810 nM	> 10000 nM	> 10000 nM	2250 nM	> 10000 nM	4340 nM	2570 nM	9720 nM	1380 nM	> 10000 nM	> 10000 nM	5990 nM	6680 nM	7310 nM	7120 nM	3040 nM	865 nM	> 8000 nM	IC50 [21]: > 10000 nM; IC50 [22]: > 10000 nM; IC50 [23]: > 8000 nM; IC50 [24]: > 8000 nM; IC50 [25]: > 8000 nM; IC50 [26]: 4800 nM; IC50 [27]: 54 nM; IC50 [28]: 9 nM; IC50 [29]: 19 nM
CC(=O)Nc1cccc(-n2c(=O)n(C3CC3)c(=O)c3c(Nc4ccc(I)cc4F)n(C)c(=O)c(C)c32)c1 [TRAMETINIB]	96 nM	> 1000 nM	18 nM	632 nM	61 nM	23 nM	74 nM	5 nM	1 nM	4 nM	2 nM	37 nM	3 nM	34 nM	52 nM	53 nM	29 nM	2 nM	> 1000 nM	> 1000 nM	IC50 [21]: > 1000 nM; IC50 [22]: 127 nM; IC50 [23]: 22 nM; IC50 [24]: > 1000 nM; IC50 [25]: 158 nM; IC50 [26]: 2 nM; IC50 [30]: 30 nM; IC50 [31]: 30 nM; IC50 [32]: 1 nM; IC50 [33]: 1 nM; IC50 [34]: 10 nM; CI [35]: 0.95; CI [36]: 1.09

— ChEMBL document CHEMBL3880386, “Combination comprising the MEK inhibitor N-{3-[3-cyclopropyl-5-(2-fluoro-4-iodo- phenylamino)-6,8-dimethyl-2,4,7-trioxo-3,4,6,7-tetrahydro-2H-pyrido[4,3-d]pyrimidin-1-yl]phenyl}acetamide and the Akt inhibitor N-{(1S)-2-amino-1-[(3-fluorophenyl)methyl]ethyl}-5-chloro-4-(4-chloro-1- …” (2014)
